The values below come from patent US9156872B2, “2′-azido substituted nucleoside derivatives and methods of use thereof for the treatment of viral diseases” (priority 2011, dated 2015).

Usually EC50 stands for the concentration giving half of the maximal effect.

The test system of the first assay is HCV replicon cells. Nature of the assay: Cell-based HCV replicon assay (replicon RNA by Taqman real time PCR). Conditions: Hepatitis C virus, 72 h, HCV replicon 1b, cells harvested on day 3; read-out: 1b EC50.
Regarding `C[C@H](NP(=O)(O)OC[C@H]1O[C@@H](n2ccc(=O)[nH]c2=O)[C@](C)(N=[N+]=[N-])[C@@H]1O)C(=O)OC1CCCCC1` (single isomer, unassigned) [Compound 329], the EC50 was more than 100 µM.

Still in this assay, the particulars now being: Hepatitis C virus, 72 h, read-out: 1b EC50.
Turning to `COC(=O)[C@H](C)NP(=O)(OC[C@H]1O[C@@H](n2ccc(N)nc2=O)[C@](C)(N=[N+]=[N-])[C@@H]1O)Oc1ccccc1Cl` (single isomer, unassigned) [Compound 330], the EC50 worked out at 12 µM.
On the same count and under the same terms, the result for `C[C@H](NP(=O)(OC[C@H]1O[C@@H](n2ccc(N)nc2=O)[C@](C)(N=[N+]=[N-])[C@@H]1O)Oc1ccccc1)C(=O)OC1CCCCC1` (single isomer, unassigned) [Compound 337] reads 27 µM; that for `C[C@H](NP(=O)(OC[C@H]1O[C@@H](n2ccc(N)nc2=O)[C@](C)(N=[N+]=[N-])[C@@H]1O)Oc1ccc(Cl)cc1)C(=O)OC1CCCCC1` (single isomer, unassigned) [Compound 339], 14 µM.
On to `COC(=O)[C@H](C)NP(=O)(OC[C@H]1O[C@@H](n2ccc(N)nc2=O)[C@](C)(N=[N+]=[N-])[C@@H]1O)Oc1ccc(Cl)c(Cl)c1` (single isomer, unassigned) [Compound 343], for which the EC50 was 61 µM.
The same measure, in the same setting: the result for `COC(=O)[C@H](C)NP(=O)(OC)OC[C@H]1O[C@@H](n2ccc(N)nc2=O)[C@](C)(N=[N+]=[N-])[C@@H]1O` (single isomer, unassigned) [Compound 345] reads more than 100 µM.

The assay is the same for the next values; noted with them: read-out: 1b EC50.
`COC(=O)[C@H](C)NP(=O)(OC[C@H]1O[C@@H](n2ccc(=O)[nH]c2=O)[C@](C)(N=[N+]=[N-])[C@@H]1O)Oc1ccc(Cl)cc1` (single isomer, unassigned) [Compound 326]: the EC50 is 0.5 µM.
Same read-out and setting: the result for `COC(=O)[C@H](C)NP(=O)(OC[C@H]1O[C@@H](n2ccc(=O)[nH]c2=O)[C@](C)(N=[N+]=[N-])[C@@H]1O)Oc1ccc(Cl)cc1` (single isomer, unassigned) [Compound 327] reads 1.7 µM; that for `COC(=O)[C@H](C)NP(=O)(OC[C@H]1O[C@@H](n2ccc(N)nc2=O)[C@](C)(N=[N+]=[N-])[C@@H]1O)Oc1ccccc1Cl` (single isomer, unassigned) [Compound 331], 10 µM; that for `CC(C)OC(=O)[C@H](C)NP(=O)(OC[C@H]1O[C@@H](n2ccc(N)nc2=O)[C@](C)(N=[N+]=[N-])[C@@H]1O)Oc1ccccc1Cl` (single isomer, unassigned) [Compound 332], 20 µM.
On the same count and under the same terms, the result for `CC(C)OC(=O)[C@H](C)NP(=O)(OC[C@H]1O[C@@H](n2ccc(N)nc2=O)[C@](C)(N=[N+]=[N-])[C@@H]1O)Oc1ccccc1Cl` (single isomer, unassigned) [Compound 333] reads 1.3 µM.
The same measure, in the same setting: the result for `CC(C)OC(=O)[C@H](C)NP(=O)(OC[C@H]1O[C@@H](n2ccc(N)nc2=O)[C@](C)(N=[N+]=[N-])[C@@H]1O)Oc1ccc2c(c1)OCO2` (single isomer, unassigned) [Compound 334] reads 13 µM; that for `CC(C)OC(=O)[C@H](C)NP(=O)(OC[C@H]1O[C@@H](n2ccc(N)nc2=O)[C@](C)(N=[N+]=[N-])[C@@H]1O)Oc1ccc2c(c1)OCO2` (single isomer, unassigned) [Compound 335], more than 100 µM.
Take `C[C@H](NP(=O)(OC[C@H]1O[C@@H](n2ccc(N)nc2=O)[C@](C)(N=[N+]=[N-])[C@@H]1O)Oc1ccccc1)C(=O)OC1CCCCC1` (single isomer, unassigned) [Compound 338]: the EC50 worked out at 26 µM.
The same measure, in the same setting: the result for `C[C@H](NP(=O)(OC[C@H]1O[C@@H](n2ccc(N)nc2=O)[C@](C)(N=[N+]=[N-])[C@@H]1O)Oc1ccc(Cl)cc1)C(=O)OC1CCCCC1` (single isomer, unassigned) [Compound 340] reads 20 µM.
Still for that read-out and setting: the value for `COC(=O)[C@H](C)NP(=O)(OC[C@H]1O[C@@H](n2ccc(N)nc2=O)[C@](C)(N=[N+]=[N-])[C@@H]1O)Oc1ccc(Cl)c(Cl)c1` (single isomer, unassigned) [Compound 344] was 35 µM.
